This is an account of results in patent US20090029983A1, “NOVEL HETEROCYCLIC COMPOUNDS HAVING ANTI-HBV ACTIVITY” (priority 2005, published 2009).

Assay [1] has as its system HBV. Kind of assay: HBV screening assay (viral DNA in baculovirus-HBV transduced HepG2 cells). The format is cell-based. Conditions: Hepatitis B virus, HepG2, 72 h, read-out: EC50 (antiviral activity), HBV-transduced HepG2 cells, three days with compound, viral DNA by ELISA. In short, it runs like this:
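HepG2 cells transduced with baculovirus carrying the HBV genome were grown 3 days at 37 °C with compound in EMEM/10% FBS; viral DNA from lysates captured by solid-phase hybridisation with digoxigenin probes and read by anti-digoxigenin HRP ELISA. EC50 from titration curves; CC50 from non-transduced HepG2 after 3 days by MTS viability.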

Assay [2] concerns HBV. Particulars: HBV treatment, background statement; cited from earlier work.

SMILES strings stand for the structures.

As usually defined, the EC50 is the concentration giving half of the maximal effect. Take `NC(=O)c1sc2nc3c(c(-c4cccs4)c2c1N)CN(C(=O)CCl)C3` [Compound 104, 3-Amino-6-(2-chloro-acetyl)-4-thiophen-2-yl-6,7-dihydro-5H-1-thia-6,8-diaza-s-indacene-2-carboxylic acid amide]: the EC50 in the assay on HBV [1] was 1 to 10 µM.

Turning to `NC(=O)c1sc2nc3c(c(-c4cccs4)c2c1N)CN(C(=O)c1ccc(N2CCOCC2)nc1)C3` [Compound 105, 3-Amino-6-(6-morpholin-4-yl-pyridine-3-carbonyl)-4-thiophen-2-yl-6,7-dihydro-5H-1-thia-6,8-diaza-s-indacene-2-carboxylicacid amide], the EC50 in the assay on HBV [1] was more than 10 µM.

In the case of `NC(=O)c1sc2nc3c(c(-c4cccs4)c2c1N)CCC1CCCCC31` (stereo not shown) [Compound 107, 8-Amino-7-thiophen-2-yl-1,2,3,4,4a,5,6,11b-octahydro-10-thia-11-aza-cyclopenta[b]phenanthrene-9-carboxylic acid amide], the EC50 in the assay on HBV [1] is more than 10 µM.

As to `CC(C)(C)C(=O)OCOP(=O)(COCCn1cnc2c(N)ncnc21)OCOC(=O)C(C)(C)C` [adefovir dipivoxil, 9-(2-((-bis((pivaloyloxy)methoxy)phosphinyl)methoxy)ethyl)adenine], the “sustained viral response rate” value in the assay with HBV [2] is listed as “below 20%”.
